Data set [1] in a line: plasma stability (Plasma Assay Protocol). Particulars: 37° C., t1/2 extrapolated if >50% remaining at 60 min, ∞ if near 100% remaining. It is filed as in vitro ADME. As to the method:
ND refers to not disclosed.
• 1. Preheated 0.05 M sodium phosphate and 0.07 M NaCl buffer, pH 7.4. Dissolved 14.505 g/L Na2HPO4·12H2O, 1.483 g/L NaH2PO4·2H2O and 4.095 g/L NaCl in deionized water. The basic solution was then titrated with the phosphoric acid to pH 7.40. Stored in fridge up to 7 days. Checked pH on the day of experiment and adjust if outside specification of 7.4+/−0.1. • 2. Plasma preparation: • Thawed frozen plasma by placing at 37° C. quickly. Centrifuged plasma at 3,000 rpm for 8 minutes to remove clots, pipetted and pooled the supernatant as the plasma to be used in the experiment. Checked and recorded the pH of the plasma. Only used plasma within the range of pH 7.4 to pH 8. If higher than pH 8, discarded the plasma. By using a 5% CO2 incubator and PBS buffer, a pH of 7.4 was reached after the 4 hour equilibrium dialysis time. Put the plasma on ice until used. • 3. Tested compounds and reference compounds spiking solution: • 0.5 mM test compounds spiking solution A: Added 10 μL of 10 mM test compounds stock solution to 190 μL DMSO. • 0.02 mM spiking solution B: Added 40 μL of spiking solution A to 960 μL of […] Sodium phosphate buffer with 0.5% BSA.
Pre-warmed the plasma and spiking solution B at 37° C. for 5 min. Added 10 μL of pre-warmed spiking solution B into the wells designated for all the time points (5, 15, 30, 45, 60 min).
For 0-min, added 400 μL of acetonitrile (ACN) containing the internal standard (IS) to the wells of 0-min plate and then added 90 μL of plasma. Added 90 μL of pre-warmed plasma into the wells designated for the time points (0, 5, 15, 30, 45, 60 min), and started timing. At 5, 15, 30, 45, 60 min, added 400 μL of ACN containing IS to the wells of corresponding plates, respectively, to stop the reaction. After quenching, shook the plates at the vibrator (IKA, MTS 2/4) for 10 min (600 rpm/min) and then centrifuged at 5594 g for 15 min (Thermo Multifuge×3R). Transferred 50 μL of the supernatant from each well into a 96-well sample plate containing 50 μL of ultra pure water (Millipore ZMQS50F01) for LC/MS analysis.

Data set [2] deals with T1, USP7, Active human recombinant protein (Homo sapiens, UniProt Q93009).
T1 construct: purchased CP Lot; 20200225001
T1 sequence (Q93009 whole entry): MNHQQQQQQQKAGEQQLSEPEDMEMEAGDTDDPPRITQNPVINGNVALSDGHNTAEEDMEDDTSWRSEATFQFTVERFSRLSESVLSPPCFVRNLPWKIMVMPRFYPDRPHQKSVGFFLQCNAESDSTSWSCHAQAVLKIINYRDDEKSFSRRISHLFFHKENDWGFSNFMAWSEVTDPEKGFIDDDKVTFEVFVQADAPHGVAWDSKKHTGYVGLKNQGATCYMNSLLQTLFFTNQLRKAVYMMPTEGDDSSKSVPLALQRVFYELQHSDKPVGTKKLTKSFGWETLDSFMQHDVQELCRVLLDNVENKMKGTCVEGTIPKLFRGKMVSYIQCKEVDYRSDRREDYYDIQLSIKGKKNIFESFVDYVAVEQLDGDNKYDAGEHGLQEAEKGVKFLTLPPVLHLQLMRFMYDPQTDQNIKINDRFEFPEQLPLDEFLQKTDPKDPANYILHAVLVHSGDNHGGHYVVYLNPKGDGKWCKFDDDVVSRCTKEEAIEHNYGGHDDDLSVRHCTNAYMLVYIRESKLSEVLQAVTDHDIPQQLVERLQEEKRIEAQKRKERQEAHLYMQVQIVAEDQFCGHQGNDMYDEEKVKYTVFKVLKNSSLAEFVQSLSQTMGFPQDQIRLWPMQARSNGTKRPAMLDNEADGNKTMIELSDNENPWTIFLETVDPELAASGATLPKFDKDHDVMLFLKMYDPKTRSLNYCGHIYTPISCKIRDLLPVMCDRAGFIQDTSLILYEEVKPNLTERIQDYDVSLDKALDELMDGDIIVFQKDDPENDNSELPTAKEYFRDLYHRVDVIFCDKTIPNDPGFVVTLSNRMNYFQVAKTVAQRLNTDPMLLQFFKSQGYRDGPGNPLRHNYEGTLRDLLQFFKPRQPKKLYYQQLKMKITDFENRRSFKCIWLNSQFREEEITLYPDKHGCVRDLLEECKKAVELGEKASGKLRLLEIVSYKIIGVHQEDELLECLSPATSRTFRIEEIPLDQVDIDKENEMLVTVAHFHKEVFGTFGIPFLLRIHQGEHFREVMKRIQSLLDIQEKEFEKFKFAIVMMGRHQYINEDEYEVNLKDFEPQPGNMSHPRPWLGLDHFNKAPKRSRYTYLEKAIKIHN
The data set is described as follows: USP7 assay (Ubiquitin-Rhodamine 110 enzymatic assay). Particulars: read-out: IC50. It is filed as biochemical. The gist of the method: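 Human recombinant USP7 (0.05 nM final) preincubated with compound, 10-point 3-fold series, 15 min at RT. Reaction started with 190 nM ubiquitin-rhodamine 110. Fluorescence (ex 485/em 535 nm) read kinetically 20 min. Slopes normalized to enzyme+substrate and substrate-only controls; IC50 from curve fit.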

Data set [3] can be described thus: mouse liver microsomal stability (Microsome Assay Protocol). Particulars: pH 7.4; mouse liver microsomes, NADPH, 37° C.; read-out: MLM t1/2, min. The class given is in vitro ADME. The gist of the method: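 Compound at 1.5 μM was mixed with 0.75 mg/mL mouse liver microsomes in 0.1 M potassium phosphate, 1.0 mM EDTA, pH 7.4, then started with NADPH from a 6 mM stock after 5 min preincubation at 37 °C. Samples taken at 0, 5, 15, 30 and 45 min were quenched with acetonitrile containing internal standard and analysed by LC/MS.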

What is called IC50 is the concentration that inhibits the measured activity by half. For `CN(C)CCC(=O)Nc1ccc2c(=O)n(CC3(O)CCN(C(=O)C(CCCNC(=O)c4ccc5c(Cl)ccnc5c4)Cc4ccccc4)CC3)cnc2c1` (stereo not drawn) [Compound 62], in data set [1], the half-life at 2 µM is 3.23 h. Moreover, the IC50 in data set [2] lay within 20 to 100 nM. Further, in data set [3], the half-life at 1 µM is 0.205 h.
Regarding `CN(C)CCC(=O)Nc1ccc2c(=O)n(CC3(O)CCN(C(=O)C(CCCNC(=O)c4ccc5c(Cl)c6c(nc5c4)C4CCC6C4)Cc4ccccc4)CC3)cnc2c1` (stereo not drawn) [Compound 91], in data set [1], the half-life at 2 µM is 5.59 h. For the same compound, in data set [2], the IC50 lay within 20 to 100 nM. In addition, the half-life at 1 µM in data set [3] worked out at 0.0495 h.
On to `CN(C)CCC(=O)Nc1ccc2c(=O)n(CC3(O)CCN(C(=O)C(CCc4ncc(-c5ccc6c(Cl)ccnc6c5)o4)Cc4ccccc4)CC3)cnc2c1` (stereo not drawn) [Compound 77], for which the half-life at 2 µM in data set [1] was 2.68 h. Also, the half-maximal inhibitory concentration (IC50) in data set [2] was 20 to 100 nM. The half-life at 1 µM in data set [3] stood at 0.0288 h.
For `CN(C)CCCOc1ccc2c(=O)n(CC3(O)CCN(C(=O)[C@H](Cc4ccccc4)N(C)CCNC(=O)c4ccc5c(Cl)c(C(N)=O)cnc5c4)CC3)cnc2c1`, in data set [1], the half-life at 2 µM is 2.48 h. Further, in data set [2], the IC50 is more than 1000 nM. Also, in data set [3], the half-life at 1 µM is 1.68 h.
The corresponding values for `O=C(CCN1CCNCC1)Nc1ccc2c(=O)n(CC3(O)CCN(C(=O)C(CCCNC(=O)c4ccc5c(Cl)ccnc5c4)Cc4ccccc4)CC3)cnc2c1` (stereo not drawn) [Compound 61, N-(4-benzyl-5-(4-hydroxy-4-((4-oxo-7-(3-(piperazin-1-yl)propanamido)quinazolin-3(4H)-yl)methyl)piperidin-1-yl)-5-oxopentyl)-4-chloroquinoline-7-carboxamide] are 3.22 h, 20 to 100 nM and 0.473 h.
Regarding `CN(C)CCCOc1ccc2c(=O)n(CC3(O)CCN(C(=O)C(CCCNC(=O)c4ccc5c(Cl)c(C(N)=O)cnc5c4)Cn4ccc(F)n4)CC3)cnc2c1` (stereo not drawn), the half-life at 2 µM in data set [1] was 1.43 h. Moreover, in data set [2], the half-inhibitory concentration (IC50) is less than 20 nM. Moreover, the half-life at 1 µM in data set [3] was found to be 2.18 h.
For `CN(C)CCCOc1ccc2c(=O)n(CC3(O)CCN(C(=O)[C@H](CCCNC(=O)c4ccc5c(Cl)cc(C6CC6)nc5c4)Cc4ccccc4)CC3)cnc2c1`, the “Plasma t1/2, min” value in data set [1] is given as “∞*”. Moreover, in data set [2], the IC50 is less than 20 nM. The half-life at 1 µM in data set [3] turned out to be 0.451 h.
As to `CN1CCN(CCC(=O)Nc2ccc3c(=O)n(CC4(O)CCN(C(=O)[C@@H](CCCNC(=O)c5ccc6c(Cl)c7c(nc6c5)CCCC7)Cc5ccccc5)CC4)cnc3c2)CC1`, the half-life at 2 µM in data set [1] is more than 8.33 h. In addition, the IC50 in data set [2] was less than 20 nM. For the same compound, the half-life at 1 µM in data set [3] amounted to 0.0333 h.
In the case of `CN1CCN(c2ccc3c(=O)n(CC4(O)CCN(C(=O)[C@H](CCCNC(=O)c5ccc6c(Cl)cc(C7CC7)nc6c5)Cc5ccccc5)CC4)cnc3c2)CC1` [Compound 122], the half-life at 2 µM in data set [1] is 3.77 h. The IC50 in data set [2] lay in the range of 20 to 100 nM. In addition, the half-life at 1 µM in data set [3] was determined as 51.5 h.
Turning to `CN1CCN(CCC(=O)Nc2ccc3c(=O)n(CC4(O)CCN(C(=O)C5CCN(c6cccc7c6CN(C#N)C7)C[C@H]5c5ccccc5)CC4)cnc3c2)CC1` (stereo partly drawn) [Compound 94], in data set [1], the half-life at 2 µM was 0.0218 h. Besides, the IC50 in data set [2] lay within 100 to 1000 nM. For the same compound, in data set [3], the half-life at 1 µM came to 0.513 h.
Turning to `CN(C)CCC(=O)Nc1ccc2c(=O)n(CC3(O)CCN(C(=O)C(CCCNC(=O)N4CCc5c(Cl)ccnc5C4)Cc4ccccc4)CC3)cnc2c1` (stereo not drawn) [Compound 43], the half-life at 2 µM in data set [1] is 3.09 h. In addition, the IC50 in data set [2] was 20 to 100 nM. The half-life at 1 µM in data set [3] is 0.138 h.
In the case of `CN(C)CCCOc1ccc2c(=O)n(CC3(O)CCN(C(=O)C(CCCNC(=O)c4ccc5c(Cl)cc(C6CC6)nc5c4)Cc4ccccc4)CC3)cnc2c1` (stereo not drawn) [Compound 116], the “Plasma t1/2, min” value in data set [1] is “∞*”. Moreover, the IC50 in data set [2] is less than 20 nM. Further, the half-life at 1 µM in data set [3] is 0.451 h.
On to `CN(C)CCCOc1ccc2c(=O)n(CC3(O)CCN(C(=O)[C@H](CCCNC(=O)c4ccc5c(Cl)c(C(N)=O)cnc5c4)Cc4ccccc4)CC3)cnc2c1`, for which, in data set [1], the half-life at 2 µM is 1.86 h. The 50% inhibitory concentration (IC50) in data set [2] is less than 20 nM. Moreover, the half-life at 1 µM in data set [3] stood at 0.777 h.
In the case of `CN(C)CCC(=O)Nc1ccc2c(=O)n(CC3(O)CCN(C(=O)C(CCCC(=O)Nc4ccc5c(Cl)ccnc5c4)Cc4ccccc4)CC3)cnc2c1` (stereo not drawn) [Compound 78], in data set [1], the half-life at 2 µM is 1.29 h. Further, in data set [2], the IC50 is less than 20 nM. The half-life at 1 µM in data set [3] came to 0.243 h.
